# Data reported in patent US9695102B2, “Alkali metal cinnamate powder and method for preparation” (Purac Biochem BV, priority 2009, dated 2017).
# Columns and labels:
# Format in all cases: physicochemical
# [1] = Average moisture content of resulting powder; conditions: resulting powder after drying
# [2] = Particle size distribution, Malvern Mastersizer 2000 laser diffraction; set-up: D (0.1) / D (0.5) / D (0.9) / D [3.2] / D [4.3]: unit not given here
# Source text: Particle size distribution has been measured with a Malvern Mastersizer 2000® particle size analyzer Measurement. Measuring principle is based on laser diffraction.
# [3] = Hausner ratio from tapped and aerated bulk density, Micron Powder Characteristics Tester; conditions: for Hausner Ratio: from tapped and aerated bulk density, flowability; for Tapped Bulk Density: tapped powder; for Aerated Bulk Density: untapped powder
# Procedure: (§1) These are all standard measurements described in various text and hand books on powders and their properties. The various measurements were done using a Micron Powder Characteristics Tester™ (Model PT-N) from Hosokawa Micron International Inc.
# (§2) The Hausner ratio is determined by measurement of the tapped and untapped (or aerated) bulk density. The angle of repose is determined by measurement of the angle of a cone of powder that is formed by pouring the powder through a glass funnel.
# [4] = Angle of repose, Micron Powder Characteristics Tester
# Procedure: as §1, §2
# [5] = Angle of spatula, Micron Powder Characteristics Tester
# Procedure: as §1
# The angle of spatula is determined by measurement the difference in the angle of powder—that stays behind on a spatula when a container with said spatula on the bottom and filled with said powder is lowered and the spatula stays on the same height—and the angle of the powder on said spatula after the spatula was tapped by a weight.
Compound,average moisture content [1],D (0.1) [2],D (0.5) [2],D (0.9) [2],D [3.2] [2],D [4.3] [2],Span (—) [2],Hausner Ratio [3],Hausner Ratio ([3]; listed as Commercially available potassium cinnamate),Tapped Bulk Density [3],Aerated Bulk Density [3],Carr class ([3]; Carr flowability scale based on compaction),Angle of repose ([4]; cone of powder poured through glass funnel),Angle of repose [index] ([4]; flowability index word),Angle of spatula [index] ([5]; flowability index word),Angle of spatula ([5]; powder on spatula before and after tapping)
"O=C([O-])C=Cc1ccccc1.[K+] [Experiment 1, potassium cinnamate]",less than 2 wt %,,,,,,,,,,,,,,,
"O=C([O-])C=Cc1ccccc1.[K+] [Experiment 2, potassium cinnamate]",about 0.5 wt %,,,,,,,,,,,,,,,
O=C([O-])C=Cc1ccccc1.[K+] [Potassium cinnamate commercially available],,44,240,601,89,286,2.32,1.66,about 1.66,527 kg m^−3,318 kg m^−3,,,,,
O=C([O-])C=Cc1ccccc1.[K+] [Potassium cinnamate of the present disclosure],,114,192,320,178,206,1.07,1.15,,945 kg m^−3,823 kg m^−3,Good,35.6,good,normal,48
